{"source": "patent US9113629B2", "about": "“4-amino-6-(4-substituted-phenyl)-picolinates and 6-amino-2-(4-substituted-phenyl)-pyrimidine-4-carboxylates and their use as herbicides” (DOW AGROSCIENCES LLC, priority 2013, dated 2015)", "key": {"[1]": {"tested_on": "Key Broadleaf Weed and Crop Species", "test": "Post-emergent Test II herbicidal activity (Table 5)", "type": "in vivo", "details": "post-emergence, 336 h, 14 days after application; for pest or weed control at 70 g/ha: application rate 70 g ai/ha", "method_in_brief": "(§1)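 Foliar application at 187 L/ha to greenhouse-grown seedlings (first or second true leaf); subirrigation thereafter. Visual 0–100% injury at 14 d relative to untreated plants.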"}, "[2]": {"tested_on": "Key Grass and Sedge Weeds as well as Grass Crops", "test": "Post-emergent Test II herbicidal activity (Table 6)", "type": "in vivo", "details": "post-emergence, 336 h; for pest or weed control at 140 g/ha: application rate 140 g ai/ha; for pest or weed control at 70 g/ha: application rate 70 g ai/ha", "method_in_brief": "as §1"}, "[3]": {"details": "Triticum aestivum, TRZSS (wheat), read-out: Visual Growth Reduction (%) 14 Days After Application, TRZSS"}, "[4]": {"details": "CYPES: yellow nutsedge (Cyperus esculentus), read-out: Visual Growth Reduction (%) 14 Days After Application, CYPES"}, "[5]": {"details": "DIGSA: crabgrass (Digitaria sanguinalis), read-out: Visual Growth Reduction (%) 14 Days After Application, DIGSA"}, "[6]": {"details": "ECHCG: barnyardgrass (Echinochloa crus-galli), read-out: Visual Growth Reduction (%) 14 Days After Application, ECHCG"}, "[7]": {"details": "ORYSA: rice (Oryza sativa), read-out: Visual Growth Reduction (%) 14 Days After Application, ORYSA"}, "[8]": {"details": "SETFA: giant foxtail (Setaria faberi), read-out: Visual Growth Reduction (%) 14 Days After Application, SETFA"}, "[9]": {"details": "SORVU: grain sorghum (Sorghum vulgare), read-out: Visual Growth Reduction (%) 14 Days After Application, SORVU"}, "[10]": {"details": "ZEAMX: maize, corn (Zea mays), read-out: Visual Growth Reduction (%) 14 Days After Application, ZEAMX"}}, "note": "Like-named read-outs stand apart in the source and are kept apart here."}
{"smiles": "C#Cc1ccc(-c2nc(N)c(OC)c(C(=O)O)n2)cc1", "note": "[Compound 28]", "values": [{"measurement": "melting point", "result": "170.7 to 171.3", "unit": "°C"}, {"measurement": "pest or weed control at 140 g/ha", "setting": "[1]; ABUTH: velvetleaf (Abutilon theophrasti), 140 g ai/ha, post-emergent, read-out: Visual Growth Reduction (%) 14 Days After Application ABUTH", "result": "0 to 29", "unit": "%"}, {"measurement": "pest or weed control at 140 g/ha", "setting": "[1]; AMARE: redroot pigweed (Amaranthus retroflexus), 140 g ai/ha, post-emergent, read-out: Visual Growth Reduction (%) 14 Days After Application AMARE", "result": "95 to 100", "unit": "%"}, {"measurement": "pest or weed control at 140 g/ha", "setting": "[1]; BRSNN: oilseed-rape, canola (Brassica napus), 140 g ai/ha, post-emergent, read-out: Visual Growth Reduction (%) 14 Days After Application BRSNN", "result": "0 to 29", "unit": "%"}, {"measurement": "pest or weed control at 140 g/ha", "setting": "[1]; CHEAL: lambsquarters (Chenopodium album), 140 g ai/ha, post-emergent, read-out: Visual Growth Reduction (%) 14 Days After Application CHEAL", "result": "95 to 100", "unit": "%"}, {"measurement": "pest or weed control at 140 g/ha", "setting": "[1]; EPHHL: wild poinsettia (Euphorbia heterophylla), 140 g ai/ha, post-emergent, read-out: Visual Growth Reduction (%) 14 Days After Application EPHHL", "result": "95 to 100", "unit": "%"}, {"measurement": "pest or weed control at 140 g/ha", "setting": "[1]; HELAN: sunflower (Helianthus annuus), 140 g ai/ha, post-emergent, read-out: Visual Growth Reduction (%) 14 Days After Application HELAN", "result": "85 to 94", "unit": "%"}, {"measurement": "pest or weed control at 140 g/ha", "setting": "[1]; VIOTR: wild pansy (Viola tricolor), 140 g ai/ha, post-emergent, read-out: Visual Growth Reduction (%) 14 Days After Application VIOTR", "result": "0 to 29", "unit": "%"}, {"measurement": "pest or weed control at 140 g/ha", "setting": "[2]; [3]", "result": "0 to 29", "unit": "%"}, {"measurement": "pest or weed control at 140 g/ha", "setting": "[2]; [4]", "result": "0 to 29", "unit": "%"}, {"measurement": "pest or weed control at 140 g/ha", "setting": "[2]; [5]", "result": "60 to 74", "unit": "%"}, {"measurement": "pest or weed control at 140 g/ha", "setting": "[2]; [6]", "result": "0 to 29", "unit": "%"}, {"measurement": "pest or weed control at 140 g/ha", "setting": "[2]; [7]", "result": "0 to 29", "unit": "%"}, {"measurement": "pest or weed control at 140 g/ha", "setting": "[2]; [8]", "result": "45 to 59", "unit": "%"}, {"measurement": "pest or weed control at 140 g/ha", "setting": "[2]; [9]", "result": "0 to 29", "unit": "%"}, {"measurement": "pest or weed control at 140 g/ha", "setting": "[2]; [10]", "result": "60 to 74", "unit": "%"}]}
{"smiles": "COC(=O)c1nc(-c2ccc(C(F)(F)F)c(F)c2)cc(N)c1Cl", "note": "[Compound 29, methyl 4-amino-3-chloro-6-(3-fluoro-4-(trifluoromethyl)phenyl)picolinate]", "values": [{"measurement": "melting point", "result": "145 to 146", "unit": "°C"}, {"measurement": "pest or weed control at 70 g/ha", "setting": "[1]; ABUTH: velvetleaf (Abutilon theophrasti), read-out: Visual Growth Reduction (%) 14 Days After Application, ABUTH", "result": "85 to 94", "unit": "%"}, {"measurement": "pest or weed control at 140 g/ha", "setting": "[1]; ABUTH: velvetleaf (Abutilon theophrasti), application rate 140 g ai/ha, read-out: Visual Growth Reduction (%) 14 Days After Application, ABUTH", "result": "85 to 94", "unit": "%"}, {"measurement": "pest or weed control at 70 g/ha", "setting": "[1]; AMARE: redroot pigweed (Amaranthus retroflexus), read-out: Visual Growth Reduction (%) 14 Days After Application, AMARE", "result": "60 to 74", "unit": "%"}, {"measurement": "pest or weed control at 140 g/ha", "setting": "[1]; AMARE: redroot pigweed (Amaranthus retroflexus), application rate 140 g ai/ha, read-out: Visual Growth Reduction (%) 14 Days After Application, AMARE", "result": "60 to 74", "unit": "%"}, {"measurement": "pest or weed control at 70 g/ha", "setting": "[1]; BRSNN: oilseed-rape, canola (Brassica napus), read-out: Visual Growth Reduction (%) 14 Days After Application, BRSNN", "result": "45 to 59", "unit": "%"}, {"measurement": "pest or weed control at 140 g/ha", "setting": "[1]; BRSNN: oilseed-rape, canola (Brassica napus), application rate 140 g ai/ha, read-out: Visual Growth Reduction (%) 14 Days After Application, BRSNN", "result": "60 to 74", "unit": "%"}, {"measurement": "pest or weed control at 70 g/ha", "setting": "[1]; CHEAL: lambsquarters (Chenopodium album), read-out: Visual Growth Reduction (%) 14 Days After Application, CHEAL", "result": "95 to 100", "unit": "%"}, {"measurement": "pest or weed control at 140 g/ha", "setting": "[1]; CHEAL: lambsquarters (Chenopodium album), application rate 140 g ai/ha, read-out: Visual Growth Reduction (%) 14 Days After Application, CHEAL", "result": "95 to 100", "unit": "%"}, {"measurement": "pest or weed control at 70 g/ha", "setting": "[1]; EPHHL: wild poinsettia (Euphorbia heterophylla), read-out: Visual Growth Reduction (%) 14 Days After Application, EPHHL", "result": "95 to 100", "unit": "%"}, {"measurement": "pest or weed control at 140 g/ha", "setting": "[1]; EPHHL: wild poinsettia (Euphorbia heterophylla), application rate 140 g ai/ha, read-out: Visual Growth Reduction (%) 14 Days After Application, EPHHL", "result": "95 to 100", "unit": "%"}, {"measurement": "pest or weed control at 70 g/ha", "setting": "[1]; HELAN: sunflower (Helianthus annuus), read-out: Visual Growth Reduction (%) 14 Days After Application, HELAN", "result": "85 to 94", "unit": "%"}, {"measurement": "pest or weed control at 140 g/ha", "setting": "[1]; HELAN: sunflower (Helianthus annuus), application rate 140 g ai/ha, read-out: Visual Growth Reduction (%) 14 Days After Application, HELAN", "result": "85 to 94", "unit": "%"}, {"measurement": "pest or weed control at 70 g/ha", "setting": "[1]; VIOTR: wild pansy (Viola tricolor), read-out: Visual Growth Reduction (%) 14 Days After Application, VIOTR", "result": "0 to 29", "unit": "%"}, {"measurement": "pest or weed control at 140 g/ha", "setting": "[1]; VIOTR: wild pansy (Viola tricolor), application rate 140 g ai/ha, read-out: Visual Growth Reduction (%) 14 Days After Application, VIOTR", "result": "0 to 29", "unit": "%"}, {"measurement": "pest or weed control at 70 g/ha", "setting": "[2]; [3]", "result": "0 to 29", "unit": "%"}, {"measurement": "pest or weed control at 140 g/ha", "setting": "[2]; [3]", "result": "0 to 29", "unit": "%"}, {"measurement": "pest or weed control at 70 g/ha", "setting": "[2]; [4]", "result": "30 to 44", "unit": "%"}, {"measurement": "pest or weed control at 140 g/ha", "setting": "[2]; [4]", "result": "45 to 59", "unit": "%"}, {"measurement": "pest or weed control at 70 g/ha", "setting": "[2]; [5]", "result": "30 to 44", "unit": "%"}, {"measurement": "pest or weed control at 140 g/ha", "setting": "[2]; [5]", "result": "60 to 74", "unit": "%"}, {"measurement": "pest or weed control at 70 g/ha", "setting": "[2]; [6]", "result": "0 to 29", "unit": "%"}, {"measurement": "pest or weed control at 140 g/ha", "setting": "[2]; [6]", "result": "0 to 29", "unit": "%"}, {"measurement": "pest or weed control at 70 g/ha", "setting": "[2]; [7]", "result": "0 to 29", "unit": "%"}, {"measurement": "pest or weed control at 140 g/ha", "setting": "[2]; [7]", "result": "0 to 29", "unit": "%"}, {"measurement": "pest or weed control at 70 g/ha", "setting": "[2]; [8]", "result": "0 to 29", "unit": "%"}, {"measurement": "pest or weed control at 140 g/ha", "setting": "[2]; [8]", "result": "0 to 29", "unit": "%"}, {"measurement": "pest or weed control at 70 g/ha", "setting": "[2]; [9]", "result": "45 to 59", "unit": "%"}, {"measurement": "pest or weed control at 140 g/ha", "setting": "[2]; [9]", "result": "45 to 59", "unit": "%"}, {"measurement": "pest or weed control at 70 g/ha", "setting": "[2]; [10]", "result": "0 to 29", "unit": "%"}, {"measurement": "pest or weed control at 140 g/ha", "setting": "[2]; [10]", "result": "0 to 29", "unit": "%"}]}
